# Experimental data published in patent US20240228647A1, “OFATUMUMAB FOR TREATING MULTIPLE SCLEROSIS IN ASIAN PATIENTS” (Novartis AG, priority 2021, published 2024).
# Columns and labels:
# patients with RMS = assay type: in vivo, human; conditions: human, in vivo
# Protocol: Ofatumumab was investigated in 1882 patients with RMS from two identical Phase III randomized, double-blind, double-dummy, active-comparator controlled, parallel-group, multicenter studies of identical design (Study I and Study II). Patients were randomized to receive either ofatumumab, OMB (20 mg s.c injections every 4 weeks, after an initial loading regimen of 3 injections on Day 1, 7, and 14), or teriflunomide, TER (14 mg p.o. once a day) as active comparator. For brevity, the teriflunomide data are not shown hereinafter.
# The maximum treatment duration for an individual patient was 30 study months (approximately 2.5 years). The two studies included a total of 71 patients of Asian race (36 patients in ofatumumab and 35 patients in teriflunomide treatment groups). This Example also includes the Asian patients data from oncology studies (Study A and Study B), as supportive data, where required.
# For the safety analyses of this report, non-serious treatment emergent adverse events (TEAEs) up to and including safety cut-off (i.e. 100 days after last study drug administration) and serious TEAEs regardless of the safety cutoff were considered (if reported prior to the data cut-off of Studies I and II). Common terminology criteria for adverse events (CTCAE) grading was used to record the severity of each AE. The latest version of CTCAE available at the time of TEAE reporting was used. […] The three most frequently reported AEs by SOC were ‘General disorders and administration site conditions’ ‘Infections and infestations’ and ‘Injury, poisoning and procedural complications’ in the Asian and ROW subgroups by race (Table 7). […] In the Asian subgroup, 1 patient experienced SAEs of urinary tract infections, urosepsis and testicular infarction in the ofatumumab group and 1 patient reported an SAE of nephrolithiasis in the teriflunomide group (Table 8). Due to the small number of Asian patients by race and region, results should be interpreted with caution.
# AEs of special interest were summarized by risk name, PT and treatment. Furthermore, the incidence of any AE that fulfilled the search terms as defined in eCRS were summarized by risk name, level, and maximum CTCAE grade. In this section, AESIs are first described for subgroups by race and then by region. […] The definitions of AEs of special interest correspond to the identified or potential risks for ofatumumab and its class of drug as well as those for the comparator (teriflunomide). AESIs, based on the safety profiles of ofatumumab, comparator, and other anti-CD20 mABs are: • Injection-related reactions including injection-systemic reaction and injection-site • reactions • Infections, including opportunistic infections, HBV infection reactivation and PML • Malignant and premalignant disorders • Hepatic Safety • Neutropenia
# serum Ig levels = conditions: cited from earlier work
# serum IgG and IgM levels = conditions: cited from earlier work
molecule,measurement,setting,value
C/C(O)=C(\C#N)C(=O)Nc1ccc(C(F)(F)F)cc1 [teriflunomide],"AE by PT: alopecia, %",patients with RMS,15.3%
same,"AE by PT: alopecia, patients",patients with RMS,138
same,"AE by PT: nasopharyngitis, %",patients with RMS,17.2%
same,"AE by PT: nasopharyngitis, patients",patients with RMS,155
same,"AE by PT: pyrexia, %",patients with RMS,14.3%
same,"AE by PT: pyrexia, patients",patients with RMS,5
same,"AE by PT: upper respiratory tract infection, %",patients with RMS,5.7%
same,"AE by PT: upper respiratory tract infection, patients",patients with RMS,2
same,"Patients who experienced at least 1 AE, %",patients with RMS,84.2%
same,"SAE by PT: Appendicitis, %",patients with RMS,0.2%
same,"SAE by PT: Appendicitis, patients",patients with RMS,2
same,"Serious TEAE: Infections and infestations, %",patients with RMS,1.9%
ocrelizumab,Reduction of IgG levels,"serum Ig levels; after two years (96 weeks), FIG. 6",approx. 5%
same,"Reduction in serum Ig levels, approximate mean rate per year","serum Ig levels; per year, over 5.5 years",3-4%
rituximab [RTX],Decrease of IgM levels in serum per year,serum IgG and IgM levels,5.0%
